Results from patent US20240166669A1, “QUINAZOLINE AMINE DERIVATIVES AS KRAS INHIBITORS” (Nikang Therapeutics, Inc., priority 2021, published 2024).

molecular target: T1, K-Ras G12D (Homo sapiens, UniProt P01116, G12D); experiment: p-ERK Cellular 1-Plate Assay (Biological Example 3); type: cell-based; settings: AGS cells (KRAS G12D), 3 h treatment, AlphaLISA p-ERK1/2, 1-plate; Biological Example 3 (values marked *); read-out: AGS PERK EC50
T1 construct: AGS (Cobioer, CBP60476) cell lines which harbor KRAS G12D mutation; host or cells: AGS
T1 sequence (P01116 1-188 isoform P01116-2 G12D): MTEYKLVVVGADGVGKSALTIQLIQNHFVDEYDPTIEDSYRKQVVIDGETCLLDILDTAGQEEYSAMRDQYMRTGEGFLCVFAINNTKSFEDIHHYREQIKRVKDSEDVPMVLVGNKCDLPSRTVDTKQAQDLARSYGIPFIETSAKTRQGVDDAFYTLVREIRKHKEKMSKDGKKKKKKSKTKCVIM
Protocol: (§1) The ability of the compound of Formula (IIA′), (II′), or (II) or a pharmaceutically acceptable salt thereof (test compound) to inhibit K-Ras G12D activity was tested using AGS (Cobioer, CBP60476) cell lines which harbor KRAS G12D mutation as described below.
(§2) AGS (Cobioer, CBP60476) were seeded in 384-well plates and cultured overnight (5,000 cells per well, 40 μl total volume). The following morning, cells were treated with test compound, with starting concentration at 10 μM and 3-fold dilution down to 0.5 nM for 3 h at 3° C. DMSO treatment served as control. pERK was then measured using AlphaLISA SureFire Ultra p-ERK/2 (Thr202/Tyr204) Assay Kit (Perkin Elmer, cat #ALSU-PERK) following the manufacturer's instruction as follows.
Briefly, the culture medium was removed and 10 μl 1× lysis buffer was added to each well, followed by 10 minutes incubation on a plate shaker at room temperature. Acceptor mixture was prepared according to manufacturer's instruction. 5 μl acceptor mixture was added to the cell lysate and the plate was wrapped with foil, spun at 500 rpm for 10s and incubated at RT for 60 min. Donor mixture was prepared under subdued light. 5 μl donor mixture was added to the cell lysate and the plate was spun at 500 rpm for 10s and incubated at RT for another 60 min. in the dark.

| SMILES | EC50 [nM] |
| --- | --- |
| C#Cc1c(F)ccc2cc(O)cc(-c3ncc4c(N5C[C@H]6CC[C@@H](C5)N6)nc(OC[C@@H]5CC(=C)CN5C)nc4c3F)c12 [Example 46, 4-(4-((1R,5S)-3,8-diazabicyclo[3.2.1]octan-3-yl)-8-fluoro-2-(((S)-1-methyl-4-methylenepyrrolidin-2-yl)methoxy)pyrido[4,3-d]pyrimidin-7-yl)-5-ethynyl-6-fluoronaphthalen-2-ol] | 5.3 |
| C#Cc1c(F)ccc2cccc(-c3ncc4c(N5C[C@H]6CC[C@@H](C5)N6)nc(OCC56CC(=C)CN5CC(=C)C6)nc4c3F)c12 [Example 47, 4-((1R,5S)-3,8-diazabicyclo[3.2.1]octan-3-yl)-2-((2,6-dimethylenetetrahydro-1H-pyrrolizin-7a(5H)-yl)methoxy)-7-(8-ethynyl-7-fluoronaphthalen-1-yl)-8-fluoropyrido[4,3-d]pyrimidine] | 52 |
| C#Cc1c(F)ccc2cccc(-c3ncc4c(N5C[C@H]6CC[C@@H](C5)N6)nc(OCC56CCCN5CC(=C)CC6)nc4c3F)c12 (stereo partly drawn) [Example 50, 4-((1R,5S)-3,8-diazabicyclo[3.2.1]octan-3-yl)-7-(8-ethynyl-7-fluoronaphthalen-1-yl)-8-fluoro-2-((6-methylenehexahydroindolizin-8a(1H)-yl)methoxy)-pyrido[4,3-d]pyrimidine] | 213 |
| C#Cc1c(F)ccc2cccc(-c3ncc4c(N5C[C@H]6CC[C@@H](C5)N6)nc(OCC56CCCCN5CC(=C)C6)nc4c3F)c12 (stereo partly drawn) [Example 51, 4-((1R,5S)-3,8-diazabicyclo[3.2.1]octan-3-yl)-7-(8-ethynyl-7-fluoronaphthalen-1-yl)-8-fluoro-2-((2-methylenehexahydroindolizin-8a(1H)-yl)methoxy)pyrido[4,3-d]pyrimidine] | 836 |
| C#Cc1c(F)ccc2cccc(-c3ncc4c(N5C[C@H]6CC[C@@H](C5)N6)nc(OCC56CCCCCN5CC(=C)C6)nc4c3F)c12 (stereo partly drawn) [Example 52, 4-((1R,5S)-3,8-diazabicyclo[3.2.1]octan-3-yl)-7-(8-ethynyl-7-fluoronaphthalen-1-yl)-8-fluoro-2-((2-methylenehexahydro-1H-pyrrolo[1,2-a]azepin-9a(5H)-yl)methoxy)pyrido[4,3-d]pyrimidine] | > 100 |
| C#Cc1c(F)ccc2cc(O)cc(-c3ncc4c(N5C[C@H]6CC[C@H](N6)C5C)nc(OCC56CCCN5CC(=C)C6)nc4c3F)c12 (stereo partly drawn) [Example 54, 5-ethynyl-6-fluoro-4-(8-fluoro-4-((1S,5R)-2-methyl-3,8-diazabicyclo[3.2.1]octan-3-yl)-2-((2-methylene-tetrahydro-1H-pyrrolizin-7a(5H)-yl)methoxy)-pyrido[4,3-d]pyrimidin-7-yl)naphthalen-2-ol] | 1.4 |

Other lines, results leading:

| EC50 [nM] | SMILES |
| --- | --- |
| 18 | C#Cc1c(F)ccc2cc(O)cc(-c3ncc4c(N5C[C@H]6CC[C@@H](C5)N6)nc(OCC56CCCCN5CC(=C)C6)nc4c3F)c12 (stereo partly drawn) [Example 43, 4-(4-((1R,5S)-3,8-diazabicyclo[3.2.1]octan-3-yl)-8-fluoro-2-((2-methylenehexahydroindolizin-8a(1H)-yl)methoxy)pyrido[4,3-d]pyrimidin-7-yl)-5-ethynyl-6-fluoronaphthalen-2-ol] |
| > 100 | C#Cc1c(F)ccc2cc(O)cc(-c3ncc4c(N5C[C@H]6CC[C@@H](C5)N6)nc(OCC56CCCCCN5CC(=C)C6)nc4c3F)c12 (stereo partly drawn) [Example 44, 4-(4-((1R,5S)-3,8-diazabicyclo[3.2.1]octan-3-yl)-8-fluoro-2-((2-methylenehexahydro-1H-pyrrolo[1,2-a]azepin-9a(5H)-yl)methoxy)pyrido[4,3-d]pyrimidin-7-yl)-5-ethynyl-6-fluoronaphthalen-2-ol] |

molecular target: T1, K-Ras G12D; experiment: p-ERK Cellular 2-Plate Assay (Biological Example 2); type: cell-based; settings: AGS cells (KRAS G12D), 3 h treatment, AlphaLISA p-ERK1/2, 2-plate; Biological Example 2 (unmarked values); read-out: AGS PERK EC50
Protocol: as §1
as §2, with “(10.000” for “(5,000”, “well” for “well,”, “staring” for “starting”, “37° C.,” for “3° C.”, “p-ERK” for “pERK”, “p-ERK1/2” for “p-ERK/2”
Briefly, the culture medium was removed and 20 μl 1× lysis buffer was added to each well, followed by 30 minutes incubation on a plate shaker at room temperature. Then 10 μl of lysate was transferred to a white 384-well plate. Acceptor mixture was prepared according to manufacturer's instruction. 5 μl acceptor mixture was added to the cell lysate and the plate was wrapped with foil, spun at 500 rpm for 10 s, and incubated at RT for 60 min. Donor mixture was prepared under subdued light. 5 μl donor mixture was added to the cell lysate and the plate was spun at 500 rpm for 10s and incubated at RT for another 60 min. in the dark. Signal was then measured on a EnVision 2105 multimode plate reader. Percentage inhibition was calculated with DMSO treatment as 100% of signal, and IC50 was calculated by XLfit 5.5.x.

| SMILES | EC50 [nM] |
| --- | --- |
| C#Cc1c(F)ccc2cccc(-c3ncc4c(N5C[C@H]6CC[C@@H](C5)N6)nc(OCC56CCCN5CC(=CC)C6)nc4c3F)c12 (stereo partly drawn) [Example 48, 4-((1R,5S)-3,8-diazabicyclo[3.2.1]octan-3-yl)-2-((2-ethylidenetetrahydro-1H-pyrrolizin-7a(5H)-yl)methoxy)-7-(8-ethynyl-7-fluoronaphthalen-1-yl)-8-fluoropyrido[4,3-d]pyrimidine] | 33 |
| C#Cc1cccc2cc(O)cc(-c3ncc4c(N5CC6CC7(CC7)C(C5)N6)nc(OCC56CCCN5CCC6)nc4c3F)c12 (stereo not drawn) [Example 53, 5-ethynyl-4-(8-fluoro-4-(3,8-diazaspiro[bicyclo[3.2.1]octane-6,1′-cyclopropan]-3-yl)-2-((tetrahydro-1H-pyrrolizin-7a(5H)-yl)methoxy)pyrido[4,3-d]pyrimidin-7-yl)naphthalen-2-ol] | 266 |
| C#Cc1c(F)ccc2cccc(-c3c(Cl)cc4c(N5C[C@H]6CC[C@@H](C5)N6)nc(OCC56CCCN5CC(=C)C6)nc4c3F)c12 (stereo partly drawn) [Example 55, 4-((1R,5S)-3,8-diazabicyclo[3.2.1]octan-3-yl)-6-chloro-7-(8-ethynyl-7-fluoronaphthalen-1-yl)-8-fluoro-2-((2-methylenetetrahydro-1H-pyrrolizin-7a(5H)-yl)methoxy)quinazoline] | > 100 |

Now from value to compound:

| EC50 [nM] | SMILES |
| --- | --- |
| 6 | C#Cc1cccc2cc(O)cc(-c3ncc4c(N5CC6CCC(C5)N6)nc(OCC56CCCN5Cc5ccncc56)nc4c3F)c12 (stereo not drawn) [Example 32, 4-(4-(3,8-diazabicyclo[3.2.1]octan-3-yl)-2-((8,9-dihydro-5H-pyrido[3,4-a]pyrrolizin-9a(7H)-yl)methoxy)-8-fluoropyrido[4,3-d]pyrimidin-7-yl)-5-ethynylnaphthalen-2-ol] |
| 1.4 | C#Cc1cccc2cc(O)cc(-c3ncc4c(N5C[C@H]6CC[C@@H](C5)N6)nc(OCC56CCCN5Cc5c(COC)cccc56)nc4c3F)c12 (stereo partly drawn) [Example 33, 4-(4-((1R,5S)-3,8-diazabicyclo-[3.2.1]octan-3-yl)-8-fluoro-2-((6-(methoxymethyl)-2,3-dihydro-1H-pyrrolo[2,1-a]isoindol-9b(5H)-yl)methoxy)-pyrido[4,3-d]pyrimidin-7-yl)-5-ethynylnaphthalen-2-ol] |
| 25 | C#Cc1cccc2cc(O)cc(-c3ncc4c(N5C[C@H]6CC[C@@H](C5)N6)nc(OCC56CCCN5Cc5c(C(F)(F)F)cccc56)nc4c3F)c12 (stereo partly drawn) [Example 34, 4-(4-((1R,5S)-3,8-diazabicyclo[3.2.1]octan-3-yl)-8-fluoro-2-((6-(trifluoromethyl)-2,3-dihydro-1H-pyrrolo[2,1-a]isoindol-9b(5H)-yl)methoxy)pyrido-[4,3-d]pyrimidin-7-yl)-5-ethynylnaphthalen-2-ol] |
| 5.2 | C#Cc1cccc2cc(O)cc(-c3ncc4c(N5C[C@H]6CC[C@@H](C5)N6)nc(OCC56CCCN5Cc5c6cnn5C)nc4c3F)c12 (stereo partly drawn) [Example 36, 4-(4-((1R,5S)-3,8-diazabicyclo[3.2.1]octan-3-yl)-8-fluoro-2-((1-methyl-1,5,6,8-tetrahydropyrazolo[4,3-a]pyrrolizin-3b(4H)-yl)methoxy)pyrido[4,3-d]pyrimidin-7-yl)-5-ethynylnaphthalen-2-ol] |
| 3.6 | C#Cc1cccc2cc(O)cc(-c3ncc4c(N5C[C@H]6CC[C@@H](C5)N6)nc(OC[C@@]56CC7COc8ccccc8C7N5C[C@H](F)C6)nc4c3F)c12 (stereo partly drawn) [Example 40, 4-(4-((1R,5S)-3,8-diazabicyclo[3.2.1]octan-3-yl)-8-fluoro-2-(((9R)-9-fluoro-6a,9,10,11a-tetrahydro-6H,7H-chromeno[3,4-b]pyrrolizin-7a(8H)-yl)methoxy)pyrido[4,3-d]pyrimidin-7-yl)-5-ethynylnaphthalen-2-ol] |
| > 100 | C#Cc1c(F)ccc2cc(O)cc(-c3ncc4c(N5C[C@H]6CC[C@@H](C5)N6)nc(OC[C@@]56CC7COc8ccccc8C7N5C[C@@H](F)C6)nc4c3F)c12 (stereo partly drawn) [Example 41, 4-(4-((1R,5S)-3,8-diazabicyclo[3.2.1]octan-3-yl)-8-fluoro-2-(((9S)-9-fluoro-6a,9,10,11a-tetrahydro-6H,7H-chromeno[3,4-b]pyrrolizin-7a(8H)-yl)methoxy)pyrido[4,3-d]pyrimidin-7-yl)-5-ethynyl-6-fluoronaphthalen-2-ol] |
| 1.3 | C#Cc1cccc2cc(O)cc(-c3c(Cl)cc4c(N5C[C@H]6CC[C@@H](C5)N6)nc(OCC56CCCN5CC(=C)C6)nc4c3F)c12 (stereo partly drawn) [Example 56, 4-(4-((1R,5S)-3,8-diazabicyclo[3.2.1]octan-3-yl)-6-chloro-8-fluoro-2-((2-methylenetetrahydro-1H-pyrrolizin-7a(5H)-yl)methoxy)quinazolin-7-yl)-5-ethynylnaphthalen-2-ol] |
